Measurements: patent US8889676B2, “3-ureidoisoquinolin-8-yl derivatives” (Actelion Pharmaceuticals Ltd., priority 2011, dated 2014)
Converted amounts (≈) assume the structure as drawn.

System: S. pneumoniae ATCC 49619
Experiment: Minimal inhibitory concentration (MIC) by broth microdilution (CLSI M7-A7)
Assay type: cell-based, Streptococcus pneumoniae
Conditions: Streptococcus pneumoniae, ATCC49619; cation-adjusted Mueller Hinton Broth supplemented with 3% (v/v) lysed horse blood; microdilution method
Procedure: Minimal inhibitory concentrations (MICs; mg/l) were determined in cation-adjusted MuellerHinton Broth (supplemented with 3% (v/v) lysed horse blood for testing Streptococcus pneumoniae) by a microdilution method following the description given in “Methods for Dilution Antimicrobial Susceptibility Tests for Bacteria that Grow Aerobically”, Approved standard, 7th ed., a Clinical and Laboratory Standards Institute (CLSI) Document M7-A7, Wayne, Pa., USA, 2006.

| MIC [µg/mL] | Structure (SMILES) |
| --- | --- |
| 4 | CCNC(=O)Nc1cc2c(-c3ccncc3)ccc(CNC(=O)OCC(O)CO)c2cn1.Cl (racemic) [Example 103, (±)-[3-(3-ethyl-ureido)-5-pyridin-4-yl-isoquinolin-8-ylmethyl]-carbamic acid 2,3-dihydroxy-propyl ester hydrochloride] |
| 0.25 (≈ 0.599 µM) | C#CC(C)OC(=O)NCc1ccc(-c2ccncc2)c2cc(NC(=O)NCC)ncc12 (racemic) [Example 108, (±)-[3-(3-ethyl-ureido)-5-pyridin-4-yl-isoquinolin-8-ylmethyl]-carbamic acid 1-methyl-prop-2-ynyl ester] |
| 2 (≈ 6.44 µM) | C#CCC(=O)NCc1cccc2cc(NC(=O)NCC)ncc12 [Example 1, but-3-ynoic acid [3-(3-ethyl-ureido)-isoquinolin-8-ylmethyl]-amide] |
| 2 (≈ 5.72 µM) | CCNC(=O)Nc1cc2cccc(CNC(=O)c3ccncc3)c2cn1 [Example 2, N-[3-(3-ethyl-ureido)-isoquinolin-8-ylmethyl]-isonicotinamide] |
| 4 (≈ 14 µM) | CCNC(=O)Nc1cc2cccc(CNC(C)=O)c2cn1 [Example 3, N-[3-(3-ethyl-ureido)-isoquinolin-8-ylmethyl]-acetamide] |
| 2 (≈ 5.74 µM) | CCNC(=O)Nc1cc2cccc(CNC(=O)c3ccccc3)c2cn1 [Example 4, N-[3-(3-ethyl-ureido)-isoquinolin-8-ylmethyl]-benzamide] |
| 4 (≈ 12.8 µM) | CCNC(=O)Nc1cc2cccc(CNC(=O)CC#N)c2cn1 [Example 5, 2-cyano-N-[3-(3-ethyl-ureido)-isoquinolin-8-ylmethyl]-acetamide] |
| 4 (≈ 11.3 µM) | CCNC(=O)Nc1cc2cccc(CNC(=O)C3CCCCC3)c2cn1 [Example 6, cyclohexanecarboxylic acid [3-(3-ethyl-ureido)-isoquinolin-8-ylmethyl]-amide] |
| 2 (≈ 6.13 µM) | CCNC(=O)Nc1cc2cccc(CNC(=O)CC3CC3)c2cn1 [Example 7, 2-cyclopropyl-N-[3-(3-ethyl-ureido)-isoquinolin-8-ylmethyl]-acetamide] |
| 8 (≈ 23.3 µM) | CCNC(=O)Nc1cc2cccc(CNC(=O)CNC(C)=O)c2cn1 [Example 8, 2-acetylamino-N-[3-(3-ethyl-ureido)-isoquinolin-8-ylmethyl]-acetamide] |
| 2 (≈ 6.75 µM) | C#CC(=O)NCc1cccc2cc(NC(=O)NCC)ncc12 [Example 9, propynoic acid [3-(3-ethyl-ureido)-isoquinolin-8-ylmethyl]-amide] |
| 4 (≈ 11.4 µM) | CCNC(=O)Nc1cc2cccc(CNC(=O)c3cccnc3)c2cn1 [Example 10, N-[3-(3-ethyl-ureido)-isoquinolin-8-ylmethyl]-nicotinamide] |
| 2 (≈ 5.72 µM) | CCNC(=O)Nc1cc2cccc(CNC(=O)c3ccccn3)c2cn1 [Example 11, pyridine-2-carboxylic acid [3-(3-ethyl-ureido)-isoquinolin-8-ylmethyl]-amide] |
| 1 (≈ 2.76 µM) | CCNC(=O)Nc1cc2cccc(CNC(=O)Cc3ccccc3)c2cn1 [Example 12, N-[3-(3-ethyl-ureido)-isoquinolin-8-ylmethyl]-2-phenyl-acetamide] |
| 2 (≈ 6.4 µM) | CCNC(=O)Nc1cc2cccc(CNC(=O)C3CC3)c2cn1 [Example 13, cyclopropanecarboxylic acid [3-(3-ethyl-ureido)-isoquinolin-8-ylmethyl]-amide] |
| 4 (≈ 12.2 µM) | CCNC(=O)Nc1cc2cccc(CNC(=O)C(C)(C)C)c2cn1 [Example 14, N-[3-(3-ethyl-ureido)-isoquinolin-8-ylmethyl]-2,2-dimethyl-propionamide] |
| 4 (≈ 12.6 µM) | CCNC(=O)Nc1cc2cccc(CNC(=O)COC)c2cn1 [Example 15, N-[3-(3-ethyl-ureido)-isoquinolin-8-ylmethyl]-2-methoxy-acetamide] |
| 4 (≈ 11.8 µM) | CCNC(=O)Nc1cc2cccc(CNC(=O)c3ncc[nH]3)c2cn1 [Example 16, 1H-imidazole-2-carboxylic acid [3-(3-ethyl-ureido)-isoquinolin-8-ylmethyl]-amide] |
| 8 (≈ 24.7 µM) | C#CCCC(=O)NCc1cccc2cc(NC(=O)NCC)ncc12 [Example 17, pent-4-ynoic acid [3-(3-ethyl-ureido)-isoquinolin-8-ylmethyl]-amide] |
| 4 (≈ 12.7 µM) | CCNC(=O)Nc1cc2cccc(CNC(=O)C(C)C)c2cn1 [Example 18, N-[3-(3-ethyl-ureido)-isoquinolin-8-ylmethyl]-isobutyramide] |
| 8 (≈ 24.3 µM) | CCNC(=O)Nc1cc2cccc(CNC(=O)CN(C)C)c2cn1 [Example 19, 2-dimethylamino-N-[3-(3-ethyl-ureido)-isoquinolin-8-ylmethyl]-acetamide] |
| 1 (≈ 2.95 µM) | CCNC(=O)Nc1cc2cccc(CNC(=O)c3cn[nH]n3)c2cn1 [Example 20, 2H-[1,2,3]triazole-4-carboxylic acid [3-(3-ethyl-ureido)-isoquinolin-8-ylmethyl]-amide] |

| MIC [µg/mL] | Structure (SMILES) |
| --- | --- |
| 8 (≈ 23.3 µM) | CCNC(=O)Nc1cc2cccc(CNC(=O)CCC(N)=O)c2cn1 [Example 21, N-[3-(3-ethyl-ureido)-isoquinolin-8-ylmethyl]-succinamide] |
| 4 (≈ 11.4 µM) | CCNC(=O)Nc1cc2cccc(CNC(=O)c3cncn3C)c2cn1 [Example 22, 3-methyl-3H-imidazole-4-carboxylic acid [3-(3-ethyl-ureido)-isoquinolin-8-ylmethyl]-amide] |
| 1 (≈ 2.34 µM) | CCNC(=O)Nc1cc2c(-c3ccncc3)ccc(CNC(=O)c3cccnc3)c2cn1 [Example 23, N-[3-(3-ethyl-ureido)-5-pyridin-4-yl-isoquinolin-8-ylmethyl]-nicotinamide] |
| 4 | CCNC(=O)Nc1cc2cccc(CNC(=O)OCC)c2cn1.Cl [Example 24, [3-(3-ethyl-ureido)-isoquinolin-8-ylmethyl]-carbamic acid ethyl ester hydrochloride] |
| 2 | CCNC(=O)Nc1cc2cccc(CNC(=O)OCc3ccncc3)c2cn1.Cl [Example 25, [3-(3-ethyl-ureido)-isoquinolin-8-ylmethyl]-carbamic acid pyridin-4-ylmethyl ester hydrochloride] |
| 4 | CCNC(=O)Nc1cc2cccc(CNC(=O)OCc3cncnc3)c2cn1.Cl [Example 26, [3-(3-ethyl-ureido)-isoquinolin-8-ylmethyl]-carbamic acid pyrimidin-5-ylmethyl ester hydrochloride] |
| 4 | CCNC(=O)Nc1cc2cccc(CNC(=O)OCCF)c2cn1.Cl [Example 27, [3-(3-ethyl-ureido)-isoquinolin-8-ylmethyl]-carbamic acid 2-fluoro-ethyl ester hydrochloride] |
| 4 | CCNC(=O)Nc1cc2cccc(CNC(=O)OCC3CC3)c2cn1.Cl [Example 28, [3-(3-ethyl-ureido)-isoquinolin-8-ylmethyl]-carbamic acid cyclopropylmethyl ester hydrochloride] |
| 4 | CCNC(=O)Nc1cc2cccc(CNC(=O)OCc3ccncn3)c2cn1.Cl [Example 29, [3-(3-ethyl-ureido)-isoquinolin-8-ylmethyl]-carbamic acid pyrimidin-4-ylmethyl ester hydrochloride] |
| 4 | CCNC(=O)Nc1cc2cccc(CNC(=O)OC(C)C)c2cn1.Cl [Example 30, [3-(3-ethyl-ureido)-isoquinolin-8-ylmethyl]-carbamic acid isopropyl ester hydrochloride] |
| 2 | C#CCOC(=O)NCc1cccc2cc(NC(=O)NCC)ncc12.Cl [Example 31, [3-(3-ethyl-ureido)-isoquinolin-8-ylmethyl]-carbamic acid prop-2-ynyl ester hydrochloride] |
| 4 | CCNC(=O)Nc1cc2cccc(CNC(=O)OCCC#N)c2cn1.Cl [Example 32, [3-(3-ethyl-ureido)-isoquinolin-8-ylmethyl]-carbamic acid 2-cyano-ethyl ester hydrochloride] |
| 4 | CCNC(=O)Nc1cc2cccc(CNC(=O)OCc3cccnc3)c2cn1.Cl [Example 33, [3-(3-ethyl-ureido)-isoquinolin-8-ylmethyl]-carbamic acid pyridin-3-ylmethyl ester hydrochloride] |
| 4 | CCNC(=O)Nc1cc2cccc(CNC(=O)OCc3ccccn3)c2cn1.Cl [Example 34, [3-(3-ethyl-ureido)-isoquinolin-8-ylmethyl]-carbamic acid pyridin-2-ylmethyl ester hydrochloride] |
| 4 | CCNC(=O)Nc1cc2cccc(CNC(=O)OCc3ccn(C)n3)c2cn1.Cl [Example 35, [3-(3-ethyl-ureido)-isoquinolin-8-ylmethyl]-carbamic acid (1-methyl-1H-pyrazol-3-yl)methyl ester hydrochloride] |
| 4 | CCNC(=O)Nc1cc2cccc(CNC(=O)OCc3ccccc3)c2cn1.Cl [Example 36, [3-(3-ethyl-ureido)-isoquinolin-8-ylmethyl]-carbamic acid benzyl ester hydrochloride] |
| 4 | CCNC(=O)Nc1cc2cccc(CNC(=O)OCCOC)c2cn1.Cl [Example 37, [3-(3-ethyl-ureido)-isoquinolin-8-ylmethyl]-carbamic acid 2-methoxy-ethyl ester hydrochloride] |
| 8 | CCNC(=O)Nc1cc2cccc(CNC(=O)OCc3cncn3C)c2cn1.Cl [Example 38, [3-(3-ethyl-ureido)-isoquinolin-8-ylmethyl]-carbamic acid 3-methyl-3H-imidazol-4-ylmethyl ester hydrochloride] |
| 2 | CCNC(=O)Nc1cc2cccc(CNC(=O)OCc3cn[nH]c3)c2cn1.Cl [Example 39, [3-(3-ethyl-ureido)-isoquinolin-8-ylmethyl]-carbamic acid 1H-pyrazol-4-ylmethyl ester hydrochloride] |
| 4 | C#CCCOC(=O)NCc1cccc2cc(NC(=O)NCC)ncc12.Cl [Example 40, [3-(3-ethyl-ureido)-isoquinolin-8-ylmethyl]-carbamic acid but-3-ynyl ester hydrochloride] |
| 0.25 (≈ 0.62 µM) | C#CCOC(=O)NCc1ccc(-c2ccncc2)c2cc(NC(=O)NCC)ncc12 [Example 41, [3-(3-ethyl-ureido)-5-pyridin-4-yl-isoquinolin-8-ylmethyl]-carbamic acid prop-2-ynyl ester] |
